Key:
[1] = target: BaPDH (WT-BaPDH, full-length ACT-containing prephenate dehydrogenase) (Bacillus anthracis, UniProt Q81P63); assay: biochemical
[2] = system: O=C(O)C(=O)CC1(C(=O)O)C=CC(O)C=C1; assay: purified protein; details: pH 7.5

BaPDH (WT-BaPDH, full-length ACT-containing prephenate dehydrogenase), sequence (Q81P63 1-378 limits assumed): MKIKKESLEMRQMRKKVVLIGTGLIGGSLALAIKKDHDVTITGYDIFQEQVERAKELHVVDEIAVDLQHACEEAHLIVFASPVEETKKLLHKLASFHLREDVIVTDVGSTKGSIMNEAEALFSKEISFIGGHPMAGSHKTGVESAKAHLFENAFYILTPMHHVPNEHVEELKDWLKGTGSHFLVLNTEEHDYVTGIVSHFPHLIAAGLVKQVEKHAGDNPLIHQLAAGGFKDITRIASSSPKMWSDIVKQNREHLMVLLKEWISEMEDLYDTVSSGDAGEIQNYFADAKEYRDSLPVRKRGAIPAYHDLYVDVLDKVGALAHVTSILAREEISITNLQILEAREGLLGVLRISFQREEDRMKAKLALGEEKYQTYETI

Compound | Ki [1] | Km [2]
N[C@@H](Cc1ccc(O)cc1)C(=O)O [tyrosine] | 1500 ± 200 nM | 
BaPDH (WT-BaPDH, full-length ACT-containing prephenate dehydrogenase) (Bacillus anthracis) |  | 78 ± 10 µM
